Literature values in patent publication US4174406A, “Terpenylaminoalkanol fish toxicants” (priority 1977, dated 1979).
Read-outs that look alike come from different tables or passages of the source.

Tested on: Carp
Conditions: registered fish toxicants, cited from earlier work

Row | Compound | effect of water pH on activity | selectivity for carp | effect of water pH on activity (listed as antimyein)
1 | C=C(C)[C@H]1Cc2c(ccc3c2O[C@@H]2COc4cc(OC)c(OC)cc4[C@@H]2C3=O)O1 [Rotenone] | adversely affected by waters of high pH | non-selective for carp | 
2 | antimycin | adversely affected by pH | non-selective for carp | adversely affected by waters of high pH
